Measurements taken from the supplement of paper PMC11208160.

Test: recombinant UMI read abundance after kanamycin selection (control-corrected) (log10(CPM+1)); higher = more efficient recombination; extreme values may be limits of the assay; sequences stand for … in AGTGCAGAGAAAATCGGCCAGTTTTCTCTGCCTGCAGTCCGCATGCCGTGGGACCCCTTGGGTTCTAACCTGTTGCCTAGATTTATGCAGCGGACTGCCTTTCTCCCAAAGTGATAAACCGG…AGGTTGGTTTCACT; site = the 11-nt donor
Outline: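 Each donor and donor-binding-loop pair was tracked by a 12-nt UMI on a plasmid carrying a promoterless kanamycin gene. With a second plasmid supplying a fixed target and T7-inducible IS621 bridge recombinase, the pool was plated in Escherichia coli on IPTG (0.07 mM) plus kanamycin or unselected. Sequencing of recombinant UMIs across the donor–target junction gave counts expressed as log10(CPM+1) after replicate averaging and control-derived scaling.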
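Further: IS621 bridge recombinase in Escherichia coli cells against a fixed T5 target plasmid.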

| Sequence | recombinant UMI read abundance (log10) |
| --- | --- |
| TTGGTATCATGGACCGGTTTTCCCGGTAATCCGTATTTGTG (site TTGGTATCTCA) | 1.82 |
| TTGGTGGCATGGACCGGTTTTCCCGGTAATCCGTATTTGTC (site TTGGTGGCTGA) | 1.5 |
| TTGTACGCATGGACCGGTTTTCCCGGTAATCCGTATTTGCA (site TTGTACGCTTG) | 1.8 |
| TTGTAGGCATGGACCGGTTTTCCCGGTAATCCGTATTTGGC (site ATGTAGGCTGC) | 0 |
| TTGTAGGCATGGACCGGTTTTCCCGGTAATCCGTATTTGGC (site CTGTAGGCTGC) | 1.59 |
| TTGTAGGCATGGACCGGTTTTCCCGGTAATCCGTATTTGGC (site GTGTAGGCTGC) | 0 |
| TTGTAGGCATGGACCGGTTTTCCCGGTAATCCGTATTTGGC (site TTGTAGGCTGC) | 1.76 |
| TTGTCACCATGGACCGGTTTTCCCGGTAATCCGTATTTGTG (site TTGTCACCTCA) | 0.0196 |
| TTGTCGACATGGACCGGTTTTCCCGGTAATCCGTATTTGAC (site TTGTCGACTGT) | 0.302 |
| TTGTGGCCATGGACCGGTTTTCCCGGTAATCCGTATTTGTG (site TTGTGGCCTCA) | 0.0156 |
| TTGTGTACATGGACCGGTTTTCCCGGTAATCCGTATTTGCA (site TTGTGTACTTG) | 0.756 |
| TTTAATCCATGGACCGGTTTTCCCGGTAATCCGTATTTGAT (site TTTAATCCTAT) | 0.157 |
| TTTAGGGCATGGACCGGTTTTCCCGGTAATCCGTATTTGAC (site TTTAGGGCTGT) | 1.53 |
| TTTATTTCATGGACCGGTTTTCCCGGTAATCCGTATTTGAG (site TTTATTTCTCT) | 0.00225 |
| TTTCCGGCATGGACCGGTTTTCCCGGTAATCCGTATTTGTA (site TTTCCGGCTTA) | 0.262 |
| TTTCGATCATGGACCGGTTTTCCCGGTAATCCGTATTTGGT (site TTTCGATCTAC) | 0.00229 |
| TTTCTGCCATGGACCGGTTTTCCCGGTAATCCGTATTTGAA (site TTTCTGCCTTT) | 0.00894 |
| TTTCTGCCATGGACCGGTTTTCCCGGTAATCCGTATTTGCG (site TTTCTGCCTCG) | 0.0153 |
| TTTGAGGCATGGACCGGTTTTCCCGGTAATCCGTATTTGCT (site TTTGAGGCTAG) | 1.31 |
| TTTGAGGCATGGACCGGTTTTCCCGGTAATCCGTATTTGCT (site TTTGCGGCTAG) | 0 |
| TTTGAGGCATGGACCGGTTTTCCCGGTAATCCGTATTTGCT (site TTTGGGGCTAG) | 0.458 |
| TTTGAGGCATGGACCGGTTTTCCCGGTAATCCGTATTTGCT (site TTTGTGGCTAG) | 0.0143 |

| Sequence | recombinant UMI read abundance (log10) |
| --- | --- |
| TTTGCGACATGGACCGGTTTTCCCGGTAATCCGTATTTGCT (site TTTGCGACTAG) | 0.529 |
| TTTGCGACATGGACCGGTTTTCCCGGTAATCCGTATTTGCT (site TTTGCGCCTAG) | 0.00919 |
| TTTGCGACATGGACCGGTTTTCCCGGTAATCCGTATTTGCT (site TTTGCGGCTAG) | 0.145 |
| TTTGCGACATGGACCGGTTTTCCCGGTAATCCGTATTTGCT (site TTTGCGTCTAG) | 0 |
| TTTGCGGCATGGACCGGTTTTCCCGGTAATCCGTATTTGGT (site TTTGCGGCTAA) | 0.0207 |
| TTTGCGGCATGGACCGGTTTTCCCGGTAATCCGTATTTGGT (site TTTGCGGCTAC) | 0.0146 |
| TTTGCGGCATGGACCGGTTTTCCCGGTAATCCGTATTTGGT (site TTTGCGGCTAG) | 0.0123 |
| TTTGCGGCATGGACCGGTTTTCCCGGTAATCCGTATTTGGT (site TTTGCGGCTAT) | 0.144 |
| TTTGCGGCATGGACCGGTTTTCCCGGTAATCCGTATTTGTT (site TTTGCGGCTAA) | 0.223 |
| TTTGCGGCATGGACCGGTTTTCCCGGTAATCCGTATTTGTT (site TTTGCGGCTAC) | 0.0157 |
| TTTGCGGCATGGACCGGTTTTCCCGGTAATCCGTATTTGTT (site TTTGCGGCTAG) | 0.0139 |
| TTTGCGGCATGGACCGGTTTTCCCGGTAATCCGTATTTGTT (site TTTGCGGCTAT) | 0.00523 |
| TTTGCTTCATGGACCGGTTTTCCCGGTAATCCGTATTTGGT (site TTTGCTTCTAC) | 0.00326 |
| TTTGTTCCATGGACCGGTTTTCCCGGTAATCCGTATTTGTG (site TTTGTTCCTCA) | 0.0191 |
| TTTTCCCCATGGACCGGTTTTCCCGGTAATCCGTATTTGTA (site TATTCCCCTTA) | 0.00331 |
| TTTTCCCCATGGACCGGTTTTCCCGGTAATCCGTATTTGTA (site TCTTCCCCTTA) | 0.00391 |
| TTTTCCCCATGGACCGGTTTTCCCGGTAATCCGTATTTGTA (site TGTTCCCCTTA) | 0.0253 |
| TTTTCCCCATGGACCGGTTTTCCCGGTAATCCGTATTTGTA (site TTTTCCCCTTA) | 0.0384 |
| TTTTCGGCATGGACCGGTTTTCCCGGTAATCCGTATTTGCT (site TTTACGGCTAG) | 0.0102 |
| TTTTCGGCATGGACCGGTTTTCCCGGTAATCCGTATTTGCT (site TTTCCGGCTAG) | 0.302 |
| TTTTCGGCATGGACCGGTTTTCCCGGTAATCCGTATTTGCT (site TTTGCGGCTAG) | 0.00223 |
| TTTTCGGCATGGACCGGTTTTCCCGGTAATCCGTATTTGCT (site TTTTCGGCTAG) | 0.0145 |
